Measured values from patent publication US11952382B1, “2-benzo-[3,4-b]quinolino-[b,g]indeno[1,2:3,4]fluoreno-[1,2-d]oxonine-24-flouro-5,11,16,21-tetraone as an antimicrobial compound” (KING FAISAL UNIVERSITY, priority 2023, dated 2024).

What was measured:
Assay type in all cases: cell-based
Details in all cases: after 10, 20, 40 and 60 minutes at all dilutions 1:100, 1:200, 1:400, 1:800
Escherichia coli = assay: Antimicrobial screening by agar dilution, Escherichia coli
Protocol: (§1) The antibacterial properties of the synthesized compound 2-benzo-[3,4-b]quinolino-[b,g]indeno[1′,2′:3,4]fluoreno-[1,2-d]oxonine-24-flouro-5,11,16,21-tetraone were studied by the method of agar dilution. Test solutions of each compound was prepared in concentration of 1% using dimethylformamide as a solvent then they are diluted in physiological solution to obtain the final experimental dilutions 1:100, 1:200, 1:400, 1:800. The effect of these substances are compared with furacillin in a controllable study. The testing microbes used were gram positive bacteria Staphylococcus aureus, gram negative bacteria Pseudomonas aeruginosa and Escherichia coli and Candida albicans fungus. The experiments used for this survey were meat-pentonlu agar (EPA) for cultivation of bacteria and Saburo environment for the fungus. Each experiment used 1 mL of test solution on each plate […]. Two drops of emulsified with microbes feel were added. All experimental samples were taken from the agar after 10, 20, 40, 60 minutes in the environment on the basis of Patrk planted. The bacteria were cultivated at a temperature of 37° C. for 1 day and the mushroom was kept in a thermostat for 2 hours at a temperature of 28° C. Then results were checked.

Staphylococcus aureus = assay: Antimicrobial screening by agar dilution, Staphylococcus aureus
Protocol: as §1

Candida albicans = assay: Antimicrobial (antifungal) screening by agar dilution, Candida albicans
Protocol: as §1

Pseudomonas aeruginosa = assay: Antimicrobial screening by agar dilution, Pseudomonas aeruginosa
Protocol: as §1

Measured: inhibition activity

O=C1Oc2nc3ccc(F)cc3cc2-c2c(c3c4ccccc4c(=O)c3c3c2c(=O)c2ccccc23)C(=O)c2ccccc21 [2-benzo-[3,4-b]quinolino-[b,g]indeno[1′,2′:3,4]fluoreno-[1,2-d]oxonine-24-flouro-5,11,16,21-tetraone]
highest inhibition activity: all assays above
